Laboratory results as given in patent US6627632B2, “Compositions and methods for the treatment of anorectal disorders” (Cellegy Pharmaceuticals, Inc., priority 1998, dated 2003).
Counter-ions that a name gives are not always drawn.

Experiments:
internal anal sphincter = assay: rat internal anal sphincter (IAS) relaxation model: internal anal sphincter pressure (IASP) in anesthetized rats; type: in vivo; settings: for relaxation of the rat IAS / reduction of IASP (summary statement in the description): rat IAS in vivo, no dose stated; for potentiation with NTG, comparison of PDE V inhibitors (summary): in vivo model, i.p. PDE V inhibitor plus NTG; for drop of IASP: subsequent dose of 1% nitroglycerin, morning after dibutyryl-cGMP
Experimental: Male Sprague-Dawley rats (300-400 gm) were anesthetized with ketamine (90 mg/kg), xylazine (9 mg/kg) given intramuscularly and supplemented as needed with ⅓^rd dose. Rats were gently restrained on their backs on a heated surgical table (Harvard Apparatus) for the duration of the experiments. The diuretic effects of anesthesia was offset by rehydration with saline through an intraperitoneal implanted 24 gauge angiocatheter (VWR, San Francisco, Calif.). The constriction/relaxation measurement assembly included a Millar catheter/transducer (1.67 mm diameter.) connected to a Digi-Med Low Pressure Analyzer (Micro-Med) accurate for pressure measurements between −50 and 150 mmHg. The data were integrated and converted to waveforms with the Digi-Med System Integrator software. Blood pressure changes were monitored using an arterial catheter/transducer and a Digi-Med Blood Pressure Analyzer with the DMSI software. Respiratory changes were monitored using a mercury strain gauge/transducer, wrapped around the rib-cage of the rat, hooked up to a Digi-Med Analog Signal Analyzer along with the DMSI software. Drug delivery was accomplished through two Hamilton syringes with no dead space using PE 10 tubing adjacent to the catheter sensor.
In this example, male Sprague-Dawley rats (250-300 g each) from Charles River were used. The rats were anesthetized intramuscularly with ketamine (90 mg/kg) and xylazine (9 mg/kg) and kept warm on a heated surgical table. All internal anal sphincter pressures (IASP) were measured with Millar catheter/transducers (MPC-500 mikrotip; Millar Instruments, Houston) on low pressure analyzers and blood pressure analyzers and recorded by DMSI software provided by Micro-Med (Louisville). Rats were provided with saline i.p. for rehydration due to the diuretic effects of the anesthesia and re-anesthetized as needed with approximately ⅓ the original dosage. In most experiments, the IASP was allowed to reach a stable baseline level prior to drug delivery. Drugs were delivered to the anal sphincter mainly via PE 20 tubing attached to the catheter(s) near the sensor(s) from 100 μl or 250 μl Hamilton syringes either manually or by infusion with a programmable Harvard automatic infusion pump.

[1] = cardiovascular tolerance to repeated NTG dosing, measured in vivo by mean arterial blood pressure; settings: rat model, repeated dosing of NTG
From the text: (§1) One issue with chronic or subchronic therapy with nitric oxide or nitric oxide donors such as NTG is the extent of any tachyphylaxis or tolerance to the relaxant effect of nitric oxide. Clinical studies have shown that the human cardiovascular system develops tolerance to nitric oxide donors. […] Thus, it seemed likely that the IAS would also develop tolerance to the effects of nitric oxide upon repeated or prolonged dosing.

vascular smooth muscle = assay: in vitro assay of NTG-induced increases in cGMP levels in vascular smooth muscle
From the text: as §1

muscle of the IAS = assay: in vitro study of NTG-induced increases in cGMP levels in the muscle of the IAS; settings: compared with vascular smooth muscle
[2] = in 5% DMSO/Acetone:Olive oil 1:1, infused continuously at 20 μg/hour
[3] = in saline, infused continuously to the IAS at 20 μg/hour
[4] = 10 mg in 100 μl 1M2P i.p. 30 minutes prior to NTG bolus doses (20 μg/min every 30 minutes)
[5] = continuously infused at 20 μg/hour in 5% dextrose

NCCc1cc(O)c(O)cc1O [6-hydroxydopamine]
course of IASP by day 19 (internal anal sphincter; 200 μg bolus in saline to the IAS each day for 5 days, day 19): partial recovery in IASP | average IASP below the original baseline pressure (internal anal sphincter; 200 μg bolus in saline to the IAS each day for 5 days, day 22): 36% | course of IASP through day 16 (internal anal sphincter; 200 μg bolus in saline to the IAS each day for 5 days, through day 16, 11 days after termination of treatment): continuous drop in IASP | period of prolonged reduction in IASP (internal anal sphincter; following 5 daily topical doses of 200 μg in saline): ≥ 3 week

CC1=NS(=O)(=O)c2cc(Cl)ccc2N1 [Diazoxide]
effect on IASP (internal anal sphincter; [2]): dramatic drop in IASP | relaxation of the rat IAS / reduction of IASP (summary statement in the description) (internal anal sphincter): relaxed the rat IAS in vivo

CCCC(=O)Nc1ncnc2c1ncn2[C@@H]1O[C@@H]2COP(=O)(O)O[C@H]2[C@H]1OC(=O)CCC [Dibutyryl cAMP, N6,2′-O-Dibutyryladenosine-3′,5′-cyclic monophosphate, sodium salt monohydrate]
effect on IASP (internal anal sphincter; [3]): minor depression in IASP | efficacy of cAMP analogs relative to each other (internal anal sphincter; rat model, aqueous-soluble analogs): more efficacious in the rat model than the 8-bromo derivative

COc1ccc([C@@H]2Sc3ccccc3N(CCN(C)C)C(=O)[C@@H]2OC(C)=O)cc1 [Diltiazem]
effect on IASP (internal anal sphincter; [3]): dramatic and sustained drop in IASP

OCCN(CCO)c1nc(N2CCCCC2)c2nc(N(CCO)CCO)nc(N3CCCCC3)c2n1 [Dipyridamole]
duration of depression of IASP due to NTG relative to the vehicle-treated rat (internal anal sphincter; 10 mg in 100 μl 1M2P i.p. 50 minutes prior to NTG bolus doses (20 μg/min every 30 minutes)): approximately twice | potentiation with NTG, comparison of PDE V inhibitors (summary) (internal anal sphincter): less striking potentiation with NTG

CC(C)Cn1c(=O)n(C)c(=O)c2[nH]cnc21 [IBMX, 3-Isobutyl-1-methylxanthine]
effect on IASP (internal anal sphincter; in 5% DMSO/Acetone:Olive oil 1:1, infused at 200 μg/hour): significant and sustained drop in IASP | time at which the drop in IASP leveled off (internal anal sphincter; in 5% DMSO/Acetone:Olive oil 1:1, infused at 200 μg/hour, after initiation of the infusion): 1 h | effect on IASP (internal anal sphincter; [2]): similar

Clc1ccc2ncnc(NCc3ccc4c(c3)OCO4)c2c1 [MBCQ, 4-((3,4-(Methylenedioxy)benzyl)amino)-6-chloroquinazoline]
potentiation of NTG (internal anal sphincter; [4]): No noticeable potentiation of NTG | potentiation with NTG, comparison of PDE V inhibitors (summary) (internal anal sphincter): did not demonstrate significant activity

O=C(O)c1ccc(C2=C3C=CC(=N3)C(c3ccc(C(=O)O)cc3)=c3ccc([nH]3)=C(c3ccc(C(=O)O)cc3)c3ccc([n-]3)C(c3ccc(C(=O)O)cc3)c3ccc2[n-]3)cc1.[Cl-].[Mn+3] (stereo not shown) [MnTBAP, Mn (III) tetrakis (4-benzoic acid) porphyrin chloride]
NO enhancing activity (internal anal sphincter; rat IASP model, superoxide scavenger with NTG): did not demonstrate significant NO enhancing activity

CCCCOc1cc(CC2CNC(=O)N2)ccc1OC (stereo not shown) [RO-20-1724, 4-(3-Butoxy-4-methoxybenzyl)-2-imidazolidinone]
effect on IASP (internal anal sphincter; [2]): minimal

Cn1c(=O)c2[nH]cnc2n(C)c1=O [Theophylline]
effect on IASP (internal anal sphincter; continuously infused at 2 μg/hour in 5% dextrose, 3 hour experiment): minimal drop in average IASP | effect on IASP (internal anal sphincter; [5]): moderate drop in average IASP | effect on IASP (internal anal sphincter; continuously infused at 200 μg/hour in 5% dextrose, 4 hour experiment): dramatic and sustained drop in IASP | relaxation of the rat IAS / reduction of IASP (summary statement in the description) (internal anal sphincter): relaxed the rat IAS

COc1ccc(CCN(C)CCCC(C#N)(c2ccc(OC)c(OC)c2)C(C)C)cc1OC (stereo not shown) [Verapamil]
effect on IASP (internal anal sphincter; [3]): dramatic and sustained drop in IASP

CCCC(=O)Nc1nc2c(ncn2C2OC3COP(=O)([O-])OC3C2OC(=O)CCC)c(=O)[nH]1.[Na+] (stereo not shown) [dibutyryl-cGMP, N2,2′-O-Dibutyrylguanosine-3′,5′-cyclic monophosphate, sodium salt]
reduction of mean IASP (internal anal sphincter; 20 μl of a 10% solution in saline applied to the anal canal, over 2.5 hours following treatment): 45% | IASP still reduced (internal anal sphincter; 20 μl of a 10% solution in saline, by the following morning): 34% | drop of average IASP (internal anal sphincter; 20 μl of a 10% solution in saline, over the last hour prior to terminating the experiment): 60% | lowering of IASP (internal anal sphincter; further dose after IASP returned to pre-treatment levels, over the ensuing 3 hours and 10 minutes): 15%

Cn1c(=O)c2c(ncn2CC(O)CO)n(C)c1=O (stereo not shown) [dyphylline, 7-(2,3-dihydroxypropyl) theophylline]
effect on IASP (internal anal sphincter; [5]): IAS relaxing effects | relaxation of the rat IAS / reduction of IASP (summary statement in the description) (internal anal sphincter): reduce IASP

CC(C)NCC(O)c1ccc(O)c(O)c1 (stereo not shown) [isoproterenol]
effect on IASP (internal anal sphincter; 100 μl 1M2P vehicle i.p., 30 minutes later continuous infusion in saline at 0.2 μg/hour (sub-threshold dose)): no significant effect on lowering IASP | effect on IASP (internal anal sphincter; bolus dose of 200 μg to the IAS): dramatic drop in IASP

Nc1cc(N2CCCCC2)nc(N)[n+]1[O-] [minoxidil]
reduction of the IASP (internal anal sphincter; single 20 μl dose of a 4% solution in 62.5% propylene glycol, over 2.5 hours following treatment): 64%

O=[N+]([O-])OCC(CO[N+](=O)[O-])O[N+](=O)[O-] [nitroglycerin]
effect on resting IASP (internal anal sphincter; 0.1% NTG in 5% dextrose/water with 1% propylene glycol, bolus doses to the IAS at 20 μg/min every 30 minutes): dramatic drop in resting IASP followed by a complete recovery to resting levels | nitrate related pressure tolerance (internal anal sphincter; continuous NTG administration, 20 μg/hour, 4 hours): no nitrate related pressure tolerance was noted | effect on resting IASP (internal anal sphincter; continuous infusion of NTG at 20 μg/hour, 4 hours): steady and sustained decline in resting IASP | duration of depression of IASP due to NTG (internal anal sphincter; control: vehicle 1M2P 100 μl i.p. 30 minutes prior to NTG bolus doses (20 μg/min every 30 minutes)): constant with each dose | duration of depression of IASP due to NTG (internal anal sphincter; control: vehicle 1M2P 100 μl i.p. 50 minutes prior to NTG bolus doses (20 μg/min every 30 minutes)): constant with each dose | duration of depression of IASP due to NTG (internal anal sphincter; control: vehicle 1M2P 100 μl i.p., first NTG dose after 2.75 hours (20 μg/min every 30 minutes)): consistent with each NTG dose | nitrate related pressure tolerance (internal anal sphincter; repeated NTG bolus administration, 20 μg/min every 30 minutes): no nitrate related pressure tolerance was noted | tachyphylaxis to the relaxant effect on the IAS (internal anal sphincter; repeated or prolonged dosing in vivo): does not develop | drop of IASP (internal anal sphincter; first 10 minutes following treatment): 71% | drop of IASP (internal anal sphincter; for 30 minutes): 24% | cardiovascular tolerance (mean arterial blood pressure) [1]: develops with repeated dosing | NTG-induced increases in cGMP levels (vascular smooth muscle): attenuated dramatically | NTG-induced increases in cGMP levels (muscle of the IAS): not as attenuated as those in vascular smooth muscle

COc1cc2nc(N3CCN(C(=O)c4ccco4)CC3)nc(N)c2cc1OC [prazosin]
time after which the drop in IASP plateaued (internal anal sphincter; in 5% DMSO/Acetone:Olive oil 1:1, infused at 20 μg/hour): 1 h | effect on IASP (internal anal sphincter; [2]): significant and sustained drop in IASP

COc1ccc(C2CNC(=O)C2)cc1OC1CCCC1 (stereo not shown) [rolipram]
effect on IASP (internal anal sphincter; [2]): significant drops in IASP followed by shorter recovery phases

CC(C)(C)NCC(O)c1ccc(O)c(CO)c1 (stereo not shown) [salbutamol]
short-term effect on IASP (internal anal sphincter; 200 μg in saline delivered to the IAS, alone): no short-term effects on the IASP | effect on IASP (internal anal sphincter; [3]): significant drop in IASP throughout the experiment

CC(C)(C)NCC(O)c1cc(O)cc(O)c1 (stereo not shown) [terbutaline]
effect on IASP (internal anal sphincter; [3]): steady and sustained decline in IASP

CCCOc1ccccc1-c1nc2nn[nH]c2c(=O)[nH]1 [zaprinast]
time at which duration of IASP depression by NTG peaked (internal anal sphincter; 10 mg i.p. 2.75 hours prior to NTG bolus doses, time after i.p. dose): 3.5 to 4 h | duration of IASP depression by NTG (potentiation of NTG) (internal anal sphincter; [4]): increasing duration of IASP depression with consecutive doses of NTG | duration of IASP depression by NTG (potentiation of NTG) (internal anal sphincter; 10 mg in 100 μl 1M2P i.p. 2.75 hours prior to NTG bolus doses (20 μg/min every 30 minutes)): continued to increase with each NTG dose | reduction of mean IASP compared with vehicle treatment alone (internal anal sphincter; 20 μL of a 5% solution in 1-methyl-2-pyrrolidinone, over 32 minutes): 21%
